“And” between values parts separate entries of the source, which are not always exact repeats. Identical values can stand only once.
How the values were obtained:
Assay type in all cases: cell-based
CCK1R [1] = biological target: T1, CCK1R (Homo sapiens, UniProt P32238); test: IP-One accumulation TR-FRET assay, PAM format, HEK-293 CCK1R cells; parameters: expressed in transfected cells; host or cells: HEK-293; conditions: for Emax: HEK293, relative to CCK control; for Emax / CCK1R PAM (IP-One) Score (activity score = normalized Emax × pEC50) / EC50: HEK-293 CCK1R cells; for Emax / CCK1R PAM (IP-One) Score (activity score = normalized Emax × pEC50): PAM format; for Emax / EC50: average ± SD; for EC50: PAM format with EC20 CCK; for CCK1R IP-One activity (in words): PAM and agonist formats
T1 sequence (P32238 1-428): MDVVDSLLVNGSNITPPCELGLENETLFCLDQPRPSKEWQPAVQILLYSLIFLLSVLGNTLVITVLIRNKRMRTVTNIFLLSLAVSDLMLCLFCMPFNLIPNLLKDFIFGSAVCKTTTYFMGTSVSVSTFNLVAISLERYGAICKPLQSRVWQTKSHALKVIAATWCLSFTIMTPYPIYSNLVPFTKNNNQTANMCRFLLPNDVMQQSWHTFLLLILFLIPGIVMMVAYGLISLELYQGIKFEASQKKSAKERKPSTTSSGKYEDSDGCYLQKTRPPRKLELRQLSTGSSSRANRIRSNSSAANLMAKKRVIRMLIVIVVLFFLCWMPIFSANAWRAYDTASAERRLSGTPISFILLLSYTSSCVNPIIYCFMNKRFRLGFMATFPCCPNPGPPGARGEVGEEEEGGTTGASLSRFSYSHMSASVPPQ
Description: (§1) For structure–activity relationship studies, we performed myo-inositol-1-phosphate (IP-One) accumulation assays with TR-FRET technology applied to the HEK-293 cell line overexpressing CCK1Rs, as we had described in our high throughput screening effort. In brief, thawed cryopreserved cell stocks were re-suspended in IP-One assay media consisting of phenol-red free DMEM (Corning, Corning, NY, USA, #17-205-CV) with 10% FBS, 1% penicillin (10,000 units)/streptomycin (10 mg) (Pen/Strep, Thermo Fisher Scientific, Waltham, MA, USA, Gibco #15140122), and 1% L-glutamine (200 mM) (Gibco #25030081) and diluted to required cell densities. Then, the cell suspension was dispensed into a 1536-well tissue culture microplate (Corning, #3727), and the plate was incubated overnight at 37 °C and 5% CO^2. After 16–20 h, DMSO or compounds were added with an Echo liquid handler (Labcyte, San Jose, CA, USA), resulting in a top final compound concentration of 50 µM diluted 2-fold for 16-point dose–responses. For the positive allosteric modulator (PAM) format, orthosteric stimulator (CCK) dilutions for control wells were prepared in assay media containing 150 mM lithium chloride (LiCl, 50 mM final, Sigma-Aldrich, St Louis, MO, USA, #L7026). After a 30 min incubation of test compounds at 37 °C and 5% CO2, orthosteric stimulator dilutions (for PAM format) or equivalent dilutions of DMSO (for agonist format) were added to designated wells using BioRaptr (Beckman Coulter, Brea, CA, USA). In addition, CCK control ligand dilutions were included on each test plate. After that, the plate was incubated for 1 h at 37 °C and 5% CO^2 and equilibrated to room temperature. Detection reagents from the IP-One Gq detection kit from Cisbio (Cisbio US Inc., Bedford, MA, USA, #62IPAPEJ) were added, and after 1 h at RT, IP-One content was measured with a PHERAstar FSX microplate reader (BMG Labtech, Ortenberg, Germany). Control ligand dose–responses were analyzed using GraphPad Prism 9.3.1 (San Diego, CA, USA) to validate adequate control and test well concentrations for positive allosteric modulation (PAM) and agonist formats. Dose–response curves were performed as 16-point 2-fold dilutions in duplicates in at least three independent experiments. Large data sets were uploaded and analyzed with CBIS (Chemical and Biology Information System software, ChemInnovation Software, Inc., San Diego, CA, USA). Further data analysis for detailed SAR studies was conducted using the D360 software (Certara).
(§2) The potency and efficacy data for these compounds were used to calculate their activity scores using the following formula: Activity Score = normalized Emax × pEC50. Normalized Emax represents the efficacy of the compound as a fractional response relative to that of the CCK control ligand. pEC50 represents the positive logarithmic value of compound EC50 concentrations in (M).

[2] = biological target: T2, vasopressin-2 receptor (AVP2R) (Homo sapiens, UniProt P30518); test: AVP2R cAMP HTRF accumulation assay; conditions: for AVP2R PAM (cAMP) Score (activity score = normalized Emax × pEC50) / AVP2R cAMP response (in words): PAM format; for EC50 / Emax: PAM format with vasopressin, original hits: agonist and PAM data combined, average ± SD
T2 construct: expressed in transfected cells; host or cells: CHO-K1 (PAM format); HEK-293 (agonist format)
T2 sequence (P30518 whole entry): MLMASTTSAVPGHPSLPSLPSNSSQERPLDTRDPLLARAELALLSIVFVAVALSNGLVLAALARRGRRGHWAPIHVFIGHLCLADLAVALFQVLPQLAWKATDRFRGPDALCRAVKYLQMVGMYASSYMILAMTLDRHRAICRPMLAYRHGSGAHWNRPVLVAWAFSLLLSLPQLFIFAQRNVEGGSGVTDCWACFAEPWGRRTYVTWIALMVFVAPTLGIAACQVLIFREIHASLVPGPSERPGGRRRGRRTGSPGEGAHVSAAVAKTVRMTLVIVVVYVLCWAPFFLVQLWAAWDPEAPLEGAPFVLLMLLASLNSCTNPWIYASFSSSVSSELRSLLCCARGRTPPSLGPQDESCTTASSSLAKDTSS
Description: Possible off-target biological effects. […] Here, we tested them at the vasopressin-2 receptor (AVP2R), representing a class A GPCR structurally related to CCK1R, which is coupled to Gs. The activity at AVP2R was tested using AVP2R-overexpressing CHO-K1 (PAM format) or HEK-293 (agonist format) cells, stimulating the cells with vasopressin. Original hits were tested in both agonist and PAM formats. Since all recognized compound responses were present in both formats, we continued to screen analogs in only the PAM format (also able to capture agonist effects) in CHO-K1 AVP2R cells for potential enhanced sensitivity. The dose–response data sets for original hits were combined, as the PAM and agonist effects were indistinguishable. In brief, arginine vasopressin (AVP) orthosteric stimulator dilutions and ligand and compound dose–response titrations in DMSO were transferred onto a 1536-well plate (Corning #3725) using an Echo liquid handler (Labcyte). Thawed cryopreserved cell stocks were diluted in stimulation buffer consisting of HBSS (Hank’s Balanced Salt Solution with Ca^2+ and Mg^2+, Gibco #24020117), 5 mM HEPES (hydroxyethyl piperazineethanesulfonic acid), 0.5 mM IBMX (3-isobutyl-1-methylxanthine, Sigma-Aldrich), and 0.075% BSA (7.5% DTPA-purified bovine serum albumin, PerkinElmer). The resulting cell suspension was added to the microplate and incubated with test compounds at room temperature for 30 min. Then, the detection reagents from the Cisbio cAMP Gs Dynamic HTRF detection kit were added. The plate was kept at room temperature for 30 min and read on a PHERAstar FSX microplate reader. Dose–response curves were performed as 16-point 2-fold dilutions in duplicate in at least two independent experiments.

CCK1R [3] = biological target: T1, CCK1R; test: IP-One accumulation TR-FRET assay, agonist format, HEK-293 CCK1R cells; parameters: expressed in transfected cells; host or cells: HEK-293; conditions: for Emax: HEK293, relative to CCK control, read-out: CCK1R Ago (IP-One) Emax; for Emax / EC50: average ± SD; for EC50: read-out: CCK1R Ago (IP-One) EC50
Description: as §1, §2

Row | Emax (CCK1R [1]) [%] | CCK1R PAM (IP-One) Score (activity score = normalized Emax × pEC50) (CCK1R [1]) | EC50 (CCK1R [1]) [µM] | AVP2R PAM (cAMP) Score (activity score = normalized Emax × pEC50) ([2]; CHO-K1 AVP2R cells) | EC50 ([2]; CHO-K1 AVP2R cells) [µM] | Emax ([2]; CHO-K1 AVP2R cells) [%] | CCK1R Ago (IP-One) Score (activity score = normalized Emax × pEC50) (CCK1R [3]) | Emax (CCK1R [3]) [%] | EC50 (CCK1R [3]) [µM] | SMILES | AVP2R cAMP response (in words) [2] | CCK1R IP-One activity (in words) (CCK1R [1]) | Emax ([2]; CHO-K1, CHO-K1 AVP2R cells) [%]
1 | 38 ± 13 | 1.86 | 9.6 ± 3.6 | 2.9 and 2.93 | 3.1 ± 1.3 | 53 ± 3 | 1.85 | 41 ± 1 | 30 ± 4.9 | CN(C)CCCNc1nnnc2c1sc1nc(N3CCCCC3)c3c(c12)CCCC3 [CMP-23] | – | – | –
2 | 52 ± 36 | 2.2 and 2.23 | 11.2 ± 4.2 | 1.4 and 1.35 | 12.6 ± 7.9 | 28 ± 14 | 0 | – | – | CC(C)Cc1nc2oc3c(NCCCN(C)C)ncnc3c2c2c1CCC2 [CMP-13] | – | – | –
3 | 0 | 0 | – | 0 | – | 0 | 0 | 0 | – | CCOC(=O)N1CCN(c2ncnc3c2oc2nc(CC(C)C)c4c(c23)CCCC4)CC1 [CMP-55] | – | – | –
4 | 43 ± 21 | 2.0 and 1.96 | 12.7 ± 5.5 | 2.0 and 1.99 | 11.8 ± 14 | 40 ± 17 | 0 | – | – | CCCc1nc2sc3c(NCCCN(C)C)ncnc3c2c2c1CCCC2 [CMP-18] | – | – | –
5 | 36 ± 16 | 1.55 | 27.1 ± 10.7 | 1.52 | 5.9 ± 3.8 | 29 | 0 | – | – | CCCc1nc2oc3c(N4CCN(CCO)CC4)ncnc3c2c2c1CCCC2 [CMP-30] | – | – | –
6 | 45 ± 6 | 2.3 and 2.27 | 9.1 ± 4.8 | 2.4 and 2.44 | 3.2 ± 1.1 | 44 ± 8 | 1.0 and 0.96 | 21 ± 2 | 27.1 ± 15.3 | CCN(CC)CCNc1ncnc2c1sc1nc(-c3ccccc3)c3c(c12)CCCC3 [CMP-11] | – | – | –
7 | 0 | 0 | – | 5.33 | 2.9 ± 0.1 | 96 ± 9 | 0 | 0 | – | COc1ccc(NC(=O)CSc2ncnc3c2sc2nc(N4CCOCC4)c4c(c23)CCCC4)cc1 [CMP-40] | strong activation of AVP2R-mediated cAMP accumulation | – | –
8 | 57 ± 27 | 2.6 and 2.58 | 13.8 ± 3.2 | 1.7 and 1.67 | 9.9 ± 0.5 | 33 ± 1 | 0 | 0 | – | CCN(CC)CCNc1ncnc2c1sc1nc(N3CCCCC3)c3c(c12)CCCC3 [CMP-6] | – | – | –
9 | 0 | 0 | – | 0 | – | 0 | 0 | 0 | – | O=C(CSc1ncnc2c1sc1nc(N3CCOCC3)c3c(c12)CCCC3)Nc1ccc(Br)cc1 [CMP-41] | – | – | –
10 | 0 | 0 | – | 0 | – | 0 | 0 | 0 | – | c1ccc(CCNc2ncnc3c2sc2nc(N4CCOCC4)c4c(c23)CCCC4)cc1 [CMP-42] | – | None of these analogs showed any CCK1R activity | –
11 | 35 ± 14 | 1.5 and 1.54 | 29.6 ± 1.8 | 1.26 | 5.4 ± 1.7 | 24 ± 3 | 0 | 0 | – | CN1CCN(c2ncnc3c2sc2nc(N4CCCCC4)c4c(c23)CCCC4)CC1 [CMP-31] | – | – | –
12 | 38 ± 14 | 1.7 | 18.4 ± 8.1 | 3.5 and 3.51 | 9.1 ± 1 | 70 ± 4 | 0 | 0 | – | CN(C)CCNc1nnnc2c1sc1nc(N3CCCCC3)c3c(c12)CCCC3 [CMP-27] | – | – | –
13 | 0 | 0 | – | 0 | – | 0 | 0 | 0 | – | C/C(Br)=C\CSc1ncnc2c1sc1nc(N3CCOCC3)c3c(c12)CCCC3 [CMP-44] | – | displayed no effects | –
14 | 0 | 0 | – | 4.78 | 10 ± 1.7 | 96 ± 5 | 0 | 0 | – | O=C(CSc1ncnc2c1sc1nc(N3CCOCC3)c3c(c12)CCCC3)NCc1ccco1 [CMP-65] | strong activation of AVP2R-mediated cAMP accumulation | – | –

Row | SMILES | Emax (CCK1R [1]) [%] | CCK1R PAM (IP-One) Score (activity score = normalized Emax × pEC50) (CCK1R [1]) | EC50 (CCK1R [1]) [µM] | AVP2R PAM (cAMP) Score (activity score = normalized Emax × pEC50) ([2]; CHO-K1 AVP2R cells) | EC50 ([2]; CHO-K1 AVP2R cells) [µM] | Emax ([2]; CHO-K1 AVP2R cells) [%] | CCK1R Ago (IP-One) Score (activity score = normalized Emax × pEC50) (CCK1R [3]) | Emax (CCK1R [3]) [%] | EC50 (CCK1R [3]) [µM] | AVP2R cAMP response (in words) [2] | CCK1R IP-One activity (in words) (CCK1R [1]) | Emax ([2]; CHO-K1, CHO-K1 AVP2R cells) [%]
15 | OCCNc1ncnc2c1sc1nc(N3CCOCC3)c3c(c12)CCCC3 [CMP-49] | 0 | 0 | – | 0 | – | – | 0 | 0 | – | – | None of these analogs showed any CCK1R activity | 0

Source: article PMC9964746, “Mechanism of Action and Structure–Activity Relationships of Tetracyclic Small Molecules Acting as Universal Positive Allosteric Modulators of the Cholecystokinin Receptor” (Membranes, 2023)
